Molecules are shown by their SMILES.

The term EC50 denotes the concentration needed to bring the measured effect to its halfway point.

The subject of the first assay is HBsAg. Description: HBsAg assay (inhibition of HBsAg in HepG2.2.15 cells). Type of assay: cell-based, hepatitis B virus. As to conditions: Hepatitis B virus, HepG2.2.15, 144 h, read-out: sAg EC50, HepG2.2.15 cells; supernatant HBsAg by CLIA at day 6 after exposure of compounds. The procedure: Inhibition of HBsAg was determined in HepG2.2.15 cells. Cells were maintained in culture medium containing 10% fetal calf serum, […], Glutamine, penicillin/streptomycin. Cells were seeded in 96-well collagen-coated plate at a density of 30,000 cells/well. Serially diluted compounds were added to cells next day at the final DMSO concentration of 0.5%. Cells were incubated with compounds for 2-3 days, after which medium was removed. Fresh medium containing compounds was added to cells for additional 3-4 days. At day 6 after exposure of compounds, supernatant was collected, the HBsAg immunoassay (microplate-based chemiluminescence immunoassay kits, CLIA, Autobio Diagnosics Co., Zhengzhou, China, Catalog #CL0310-2) was used to determine the level of HBsAg according to manufactory instruction. Dose-response curves were generated and the EC50 value (effective concentrations that achieved 50% inhibitory effect) were determined using XLfit software. In addition, cells were seeded at a density of 5,000 cells/well for determination of cell viability in the presence and absence of compounds by using CellTiter-Glo reagent (Promega).
On to `CCOc1cc2c(cc1F)C(CC)N(c1nc(-c3ncccn3)ncc1F)C2=O` (single isomer, unassigned) [Example 56, 6-Ethoxy-3-ethyl-5-fluoro-2-(5-fluoro-[2,2′-bipyrimidin]-4-yl)isoindolin-1-one], for which the EC50 was found to be 70 nM.
The same measure, in the same setting: as for `CCC1c2cc(F)c(OC(C)C)cc2C(=O)N1c1nc(-c2ncccn2)ncc1F` (single isomer, unassigned) [Example 57, 3-Ethyl-5-fluoro-2-(5-fluoro-[2,2′-bipyrimidin]-4-yl)-6-isopropoxyisoindolin-1-one], the figure is 110 nM; as for `CCCC1c2cc(F)c(OC)cc2C(=O)N1c1nc(-c2ncccn2)ncc1F` (single isomer, unassigned) [Example 58, 5-Fluoro-2-(5-fluoro-[2,2′-bipyrimidin]-4-yl)-6-methoxy-3-propylisoindolin-1-one], 20 nM.
For `CCC1c2cc(F)c(F)cc2C(=O)N1c1cnc(-c2ncccn2)nc1` (single isomer, unassigned) [Example 59, 2-([2,2′-Bipyrimidin]-5-yl)-3-ethyl-5,6-difluoroisoindolin-1-one], the EC50 was determined as 10000 nM.

Staying with this assay, now noted: read-out: sAg EC50; HepG2.2.15 cells; supernatant HBsAg by CLIA at day 6 after exposure of compounds.
Regarding `COCCC1c2cc(F)c(OC)cc2C(=O)N1c1ccnc(-c2ncccn2)n1` (single isomer, unassigned) [Example 54, 2-([2,2′-Bipyrimidin]-4-yl)-5-fluoro-6-methoxy-3-(2-methoxyethyl)isoindolin-1-one], the EC50 amounted to 430 nM.
For the molecule `CCC1c2cc(F)c(OC)cc2C(=O)N1c1nc(-c2ncccn2)ncc1F` (single isomer, unassigned) [Example 55, 3-Ethyl-5-fluoro-2-(5-fluoro-2-pyrimidin-2-yl-pyrimidin-4-yl)-6-methoxy-isoindolin-1-one], the EC50 stood at 50 nM.
The same measure, in the same setting: with `CCC1c2cc(OC)c(OC)cc2C(=O)N1c1nc(-c2ncccn2)ncc1F` (single isomer, unassigned) [Example 66, 3-Ethyl-2-(5-fluoro-[2,2′-bipyrimidin]-4-yl)-5,6-dimethoxyisoindolin-1-one] the figure was 34 nM; with `CCC1c2cc(OC)c(OC)cc2C(=O)N1c1nc(-c2ncccn2)ncc1F` (single isomer, unassigned) [Example 67, 3-Ethyl-2-(5-fluoro-[2,2′-bipyrimidin]-4-yl)-5,6-dimethoxyisoindolin-1-one], 10000 nM; with `CCC1c2cc(OC)c(OC)cc2C(=O)N1c1cc(F)nc(-c2ncccn2)n1` (single isomer, unassigned) [Example 68, 3-Ethyl-2-(6-fluoro-[2,2′-bipyrimidin]-4-yl)-5,6-dimethoxyisoindolin-1-one], 1000 nM.
Same read-out and setting: with `CCC1c2cc(OC)c(OC)cc2C(=O)N1c1cc(F)nc(-c2ncccn2)n1` (single isomer, unassigned) [Example 69, 3-Ethyl-2-(6-fluoro-[2,2′-bipyrimidin]-4-yl)-5,6-dimethoxyisoindolin-1-one] the figure was 49000 nM; with `COc1cc2c(cc1OC)C(c1ccccc1)N(c1nc(-c3ncccn3)ncc1F)C2=O` (single isomer, unassigned) [Example 70, 2-(5-Fluoro-[2,2′-bipyrimidin]-4-yl)-5,6-dimethoxy-3-phenylisoindolin-1-one], 1 nM.
The same measure, in the same setting: as for `COc1cc2c(cc1OC)C(c1ccccc1)N(c1nc(-c3ncccn3)ncc1F)C2=O` (single isomer, unassigned) [Example 71, 2-(5-Fluoro-[2,2′-bipyrimidin]-4-yl)-5,6-dimethoxy-3-phenylisoindolin-1-one], the figure is 1000 nM; as for `CCC1c2cc(OC)c(OC)cc2C(=O)N1c1ccnc(-c2ncc(F)cn2)n1` (single isomer, unassigned) [Example 72, 3-Ethyl-2-(5′-fluoro-[2,2′-bipyrimidin]-4-yl)-5,6-dimethoxyisoindolin-1-one], 39 nM; as for `CCC1c2cc(OC)c(OC)cc2C(=O)N1c1ccnc(-c2ncc(F)cn2)n1` (single isomer, unassigned) [Example 73, 3-Ethyl-2-(5′-fluoro-[2,2′-bipyrimidin]-4-yl)-5,6-dimethoxyisoindolin-1-one], 1000 nM.

(Values after patent US20230019280A1, “SUBSTITUTED ISOINDOLONYL 2,2'-BIP[…], ANALOGUES THEREOF, AND METHODS USING SAME” (priority 2019, published 2023).)
